The text below walks through data of the COVID Moonshot data (paper PMC11187573), “Identification of SARS-CoV-2 Mpro inhibitors through deep reinforcement learning for de novo drug design and computational chemistry approaches” (RSC Medicinal Chemistry, 2024).

The target in data set [1] is SARS-CoV-2 Main Protease (SARS-CoV-2) (UniProt P0DTD1).
Data set [2] has the same target. The source holds these as a separate data set.

For `O=C(NCc1cccnn1)Nc1cccc(N2CCC2=O)c1`, the relative solubility at 20 uM was found to be 1 and the relative solubility at 100 uM was 1. In data set [1] (20.0 µM), the inhibition was found to be 3.61%. The inhibition in data set [1] (50.0 µM) came out at 6.82%. In addition, the inhibition in data set [2] (20.0 µM) amounted to 0%. Moreover, the inhibition in data set [2] (50.0 µM) was found to be 0%.

Consider `COc1ccccc1OCC(C)NC(=O)c1cc(=O)[nH]c2cc(F)ccc12` (stereo not drawn), for which the relative solubility at 20 uM came out at 1 and the relative solubility at 100 uM came to 0.99. Besides, the IC50 in data set [1] is 33 µM. Besides, the inhibition in data set [1] (20.0 µM) came to 46.9%. Moreover, in data set [1] (50.0 µM), the inhibition turned out to be 78.4%. Also, in data set [2] (50.0 µM), the inhibition stood at 22%.

`Cc1nnc(NC(=O)Cc2cccc(Cl)c2F)s1` had a relative solubility at 20 uM of 0.99 and a relative solubility at 100 uM of 0.68. The inhibition in data set [1] (20.0 µM) came to 1.02%. In addition, the inhibition in data set [1] (50.0 µM) is -14.8%. For the same molecule, the inhibition in data set [2] (50.0 µM) amounted to 0%.

As for `O=C(NCC1COc2ccccc2O1)c1cc(=O)[nH]c2cc(F)ccc12` (stereo not drawn), the relative solubility at 20 uM came out at 0.98 and the relative solubility at 100 uM stood at 0.62. Further, in data set [1] (20.0 µM), the inhibition is -0.372%. Also, the inhibition in data set [1] (50.0 µM) was -2.5%. For the same molecule, the inhibition in data set [2] (50.0 µM) came out at 3.98%.

Molecule `Cc1ccncc1-c1nnc(-c2cccc(Cl)c2)o1` returned a relative solubility at 20 uM of 1 and a relative solubility at 100 uM of 0.99. In data set [1] (20.0 µM), the inhibition is 1.73%. Moreover, the inhibition in data set [1] (50.0 µM) came out at 13.8%. Besides, the inhibition in data set [2] (50.0 µM) worked out at 0.631%.

`Cc1ccncc1NC(=O)C(C)CC1CC1` (stereo not drawn) had a relative solubility at 20 uM of 1 and a relative solubility at 100 uM of 1. In addition, the inhibition in data set [1] (20.0 µM) is -2.37%. Besides, the inhibition in data set [1] (50.0 µM) is 2.12%. Also, the inhibition in data set [2] (50.0 µM) was found to be 0%.

Take `CC1CCCC(OCc2cccc(NC(=O)NC(C)c3ccn[nH]3)c2)C1` (stereo not drawn): the relative solubility at 20 uM was 1 and the relative solubility at 100 uM came to 0.85. Besides, the inhibition in data set [1] (50.0 µM) is -40.1%. Besides, in data set [2] (20.0 µM), the inhibition stood at 0%. Also, the inhibition in data set [2] (50.0 µM) stood at 0%.

Regarding `CO[C@H](C)C(=O)Nc1cnccc1C` (stereo in doubt), the relative solubility at 20 uM was found to be 1.01 and the relative solubility at 100 uM is 1. Moreover, the inhibition in data set [1] (20.0 µM) worked out at 4.95%. In data set [1] (50.0 µM), the inhibition worked out at 8.97%. Further, the inhibition in data set [2] (50.0 µM) is 6.56%.

Consider `O=S(=O)(NC1(Cc2ccccc2)CCOCC1)c1cccnc1`, for which the relative solubility at 20 uM worked out at 1 and the relative solubility at 100 uM came out at 1. The inhibition in data set [1] (20.0 µM) was -34.8%. In data set [1] (50.0 µM), the inhibition worked out at 3.06%. Further, the inhibition in data set [2] (50.0 µM) turned out to be 11.6%.

As to `C=CC(=O)N(c1ccc(C(C)(C)C)cc1)C(C(=O)NCCCSC)c1cccnc1` (stereo not drawn), the relative solubility at 20 uM was found to be 1 and the relative solubility at 100 uM amounted to 1. The inhibition in data set [1] (20.0 µM) is 50.3%. In data set [1] (50.0 µM), the inhibition worked out at 75.6%. In data set [2], this molecule yielded an IC50 of 13.7 µM. The inhibition in data set [2] (20.0 µM) came out at 70%. Further, the inhibition in data set [2] (50.0 µM) came out at 100%.

Take `CC(NC(=O)c1ccccc1OCC(N)=O)c1cnn(C)c1` (stereo not drawn): the relative solubility at 20 uM came to 1 and the relative solubility at 100 uM stood at 1. In addition, in data set [1] (20.0 µM), the inhibition was -1.52%. Further, in data set [1] (50.0 µM), the inhibition was 2.68%. In addition, the inhibition in data set [2] (20.0 µM) was 0%. For the same molecule, in data set [2] (50.0 µM), the inhibition came to 0%.

`O=C(NCc1coc2ccccc12)C1CCc2nnc(-c3ccc(O)cc3)n2C1` (stereo not drawn) displayed a relative solubility at 20 uM of 0.89 and a relative solubility at 100 uM of 0.94. Moreover, in data set [1] (20.0 µM), the inhibition was -9.94%. In addition, the inhibition in data set [1] (50.0 µM) was 2.5%. Moreover, the inhibition in data set [2] (50.0 µM) was found to be 55.3%.

Regarding `C=CC(=O)N(c1ccc(C(F)(F)F)cc1)C(C(=O)NCCc1cccc(F)c1)c1cccnc1` (stereo not drawn), the relative solubility at 20 uM is 0.99 and the relative solubility at 100 uM turned out to be 0.94. The inhibition in data set [1] (20.0 µM) was determined as 50.7%. Also, the inhibition in data set [1] (50.0 µM) worked out at 72.7%. The same molecule came in with an IC50 in data set [2] of 6.12 µM. For the same molecule, the inhibition in data set [2] (50.0 µM) is 100%.

Consider `Cc1cc(NC(=O)Cn2cncc2C)cc(C)c1Cl`, for which the relative solubility at 20 uM amounted to 1 and the relative solubility at 100 uM was found to be 0.99. Moreover, in data set [1] (20.0 µM), the inhibition amounted to 2.9%. Further, in data set [1] (50.0 µM), the inhibition is 4.88%. The inhibition in data set [2] (50.0 µM) turned out to be 25.8%.

As to `C=CC(=O)N(c1ccc(C(C)(C)C)cc1)C(C(=O)NC(C)(C)C)c1cnc[nH]1` (stereo not drawn), the relative solubility at 20 uM was 0.99 and the relative solubility at 100 uM stood at 0.89. In addition, the inhibition in data set [1] (20.0 µM) was -20.2%. For the same molecule, in data set [1] (50.0 µM), the inhibition is -23.6%. In addition, the inhibition in data set [2] (20.0 µM) is 0%. In addition, in data set [2] (50.0 µM), the inhibition amounted to 0%.

`O=C(NCc1cccnc1)Nc1cccc(OCC(F)F)n1` returned a relative solubility at 20 uM of 1 and a relative solubility at 100 uM of 1. Further, the inhibition in data set [1] (20.0 µM) worked out at 3.33%. For the same molecule, the inhibition in data set [1] (50.0 µM) turned out to be 8.28%. Besides, the inhibition in data set [2] (20.0 µM) worked out at 0%. Besides, the inhibition in data set [2] (50.0 µM) is 4.42%.

With `Cc1nnc(NC(=O)Cc2cccc(Cl)c2)n1C`, the relative solubility at 20 uM turned out to be 1 and the relative solubility at 100 uM is 1. Besides, the inhibition in data set [1] (20.0 µM) was -6.05%. For the same molecule, the inhibition in data set [1] (50.0 µM) was found to be 0.874%. Further, the inhibition in data set [2] (50.0 µM) was -14%.

`Cc1cc(C(C)(C)C)ccc1OC[C@H](O)Cn1cnccc1=O` (stereo in doubt) showed a relative solubility at 20 uM of 1.01 and a relative solubility at 100 uM of 1. For the same molecule, the inhibition in data set [1] (20.0 µM) is -3.67%. Also, the inhibition in data set [1] (50.0 µM) is 16.5%. For the same molecule, in data set [2] (50.0 µM), the inhibition came to 0%.

In turn, `O=C(N/N=C/c1c[nH]cn1)C1CCCCC1` came in with a relative solubility at 20 uM of 1.01 and a relative solubility at 100 uM of 1. The inhibition in data set [1] (20.0 µM) was -3.95%. In data set [1] (50.0 µM), the inhibition was determined as 2.16%. In addition, the inhibition in data set [2] (50.0 µM) was -16.3%.

For orientation: inhibition means the relative decrease from the control value, in per cent. Broadly, the IC50 is the concentration needed to halve the response being measured. Higher therefore signals weaker potency.
